From patent US9695155B2, “Herbicidal substituted pyrimidinyloxy benzene compounds” (E. I. DU PONT DE NEMOURS AND COMPANY, priority 2013, dated 2017)

Assays:
[1] = system: kochia; assay: Test A preemergence; assay type: in vivo, Kochia scoparia; conditions: for Plant response rating, Kochia: 125 g ai/ha; for Kochia plant response rating: 500 g ai/ha
How it was run: (§1)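 Visual injury scored 0–100 (100 = complete control) against untreated controls about 10 days after treatment in a greenhouse. Test chemicals, formulated with surfactant in non-phytotoxic solvent, were sprayed on soil preemergence or on 2-10 cm, one- to two-leaf plants postemergence.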

[2] = system: Italian ryegrass; assay: Test C postemergence; assay type: in vivo, Lolium multiflorum
How it was run: (§2)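 Visual injury score versus untreated controls, 0 = no effect, 100 = complete control, taken 13 to 15 days after treatment in the greenhouse. Pre-emergence pots held loam/sand; post-emergence plants grew in sphagnum peat/vermiculite mix and were sprayed at the 1- to 4-leaf stage.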

[3] = system: johnsongrass; assay: Test C preemergence; assay type: in vivo, Sorghum halepense
How it was run: as §2

[4] = system: waterhemp; assay: Test C preemergence; assay type: in vivo, Amaranthus rudis
How it was run: as §2

[5] = system: wheat, winter; assay: Test C preemergence; assay type: in vivo, Triticum aestivum
How it was run: as §2

[6] = system: corn; assay: Test C postemergence; assay type: in vivo, Zea mays
How it was run: as §2

[7] = system: pigweed; assay: Test A preemergence; assay type: in vivo, Amaranthus retroflexus; conditions: for Pigweed plant response rating: 500 g ai/ha
How it was run: as §1

[8] = system: blackgrass; assay: Test A postemergence; assay type: in vivo, Alopecurus myosuroides; conditions: 0 to 100 scale where 0 is no effect and 100 is complete control
How it was run: as §1

[9] = system: wheat; assay: Test A postemergence; assay type: in vivo, Triticum aestivum; conditions: 0 to 100 scale where 0 is no effect and 100 is complete control
How it was run: as §1

[10] = system: Heteranthera limosa; assay: Test B flooded paddy test; assay type: in vivo; conditions: Flood, 250 g ai/ha, 0 to 100 scale where 0 is no effect and 100 is complete control
How it was run: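 2-leaf stage plants; pots flooded to 3 cm, compound added to paddy water, depth maintained. Greenhouse 13–15 d. Visual rating vs untreated controls, 0 (no effect) to 100 (complete control); dash = no result.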

[11] = system: giant foxtail; assay: Test A postemergence; assay type: in vivo, Setaria faberii; conditions: 0 to 100 scale where 0 is no effect and 100 is complete control
How it was run: as §1

[12] = system: kochia; assay: Test A postemergence; assay type: in vivo, Kochia scoparia; conditions: 0 to 100 scale where 0 is no effect and 100 is complete control
How it was run: as §1

[13] = system: galium; assay: Test C preemergence; assay type: in vivo, Galium aparine
How it was run: as §2

[14] = 0 to 100 scale where 0 is no effect and 100 is complete control
[15] = 0 to 100 scale, 0 no effect, 100 complete control, approx. 10 days
[16] = Postemergence, 31 g ai/ha, scale 0 to 100 (0 no effect, 100 complete control), 13 to 15 days
[17] = Postemergence, 62 g ai/ha, scale 0 to 100 (0 no effect, 100 complete control)
[18] = 16 g ai/ha, preemergence, scale 0 to 100 (0 no effect, 100 complete control)
[19] = 62 g ai/ha, preemergence, scale 0 (no effect) to 100 (complete control)
[20] = 125 g ai/ha, preemergence, scale 0 (no effect) to 100 (complete control)
[21] = Preemergence, 31 g ai/ha, scale 0 to 100, 0 no effect, 100 complete control

Cc1cnc(Oc2cccc(C#N)c2-n2cc(C#N)cn2)nc1 [Compound 90]
Plant response rating, Kochia [1, 14]: 100
Kochia plant response rating [1, 15]: 100
Plant response rating (0 to 100), Ryegrass, Italian ([2]; 125 g ai/ha, postemergence): 0
Plant response rating, Ryegrass, Italian [2, 16]: 5
Plant response rating, Ryegrass, Italian [2, 17]: 5
Johnsongrass plant response rating [3, 18]: 5
Johnsongrass plant response rating [3, 19]: 20
Johnsongrass plant response rating [3, 20]: 80
Plant response rating, Johnsongrass [3, 21]: 10
Waterhemp plant response rating [4, 18]: 85
Waterhemp plant response rating [4, 19]: 100
Waterhemp plant response rating [4, 20]: 100
Plant response rating, Waterhemp [4, 21]: 100
Wheat plant response rating [5, 18]: 0
Wheat plant response rating [5, 19]: 0
Wheat plant response rating [5, 20]: 0
Plant response rating, Wheat [5, 21]: 0
Corn plant response rating ([6]; 16 g ai/ha, postemergence, visual rating, scale 0 to 100 (0 no effect, 100 complete control), 13 to 15 days): 0
Plant response rating (0 to 100), Corn ([6]; 125 g ai/ha, postemergence): 5
Plant response rating, Corn [6, 16]: 5
Plant response rating, Corn [6, 17]: 5
Plant response rating, Pigweed ([7]; 125 g ai/ha, 0 to 100 scale where 0 is no effect and 100 is complete control): 100
Pigweed plant response rating [7, 15]: 100
Plant response rating, Blackgrass ([8]; 125 g ai/ha): 50
Plant response rating, Blackgrass ([8]; 500 g ai/ha): 70
Plant response rating, Wheat ([9]; 125 g ai/ha): 0
Plant response rating, Wheat ([9]; 500 g ai/ha): 50
Plant response rating, Ducksalad [10]: 40
Plant response rating, Foxtail, Giant ([11]; 125 g ai/ha): 80
Plant response rating, Foxtail, Giant ([11]; 500 g ai/ha): 90
Plant response rating, Kochia ([12]; 125 g ai/ha): 90
Plant response rating, Kochia ([12]; 500 g ai/ha): 100
Galium plant response rating [13, 18]: 5
Galium plant response rating [13, 19]: 100
Galium plant response rating [13, 20]: 98
Plant response rating, Galium [13, 21]: 5

N#Cc1cccc(Oc2ncc(Cl)cn2)c1-n1cc(SC(F)(F)F)cn1 [Compound 134, 3-[(5-chloro-2-pyrimidinyl)oxy]-2-[4-(trifluoromethylthio)-1-pyrazolyl]benzonitrile]
Plant response rating, Kochia [1, 14]: 100
Kochia plant response rating [1, 14]: 100
pest or weed control at 16 g/ha ([2]; Lolium multiflorum, post-emergence, 16 g ai/ha, postemergence, 0 is no effect, 100 is complete control, read-out: Plant response rating (0 to 100), Ryegrass, Italian): 10%
pest or weed control at 125 g/ha ([2]; Lolium multiflorum, post-emergence, 125 g ai/ha, postemergence, visual rating, scale 0 to 100 (0 no effect, 100 complete control), read-out: Plant response rating, Ryegrass, Italian): 0%
pest or weed control at 62 g/ha ([2]; Lolium multiflorum, post-emergence, Postemergence, 62 g ai/ha, scale 0 to 100 (0 no effect, 100 complete control), read-out: Plant response rating, Ryegrass, Italian): 5%
pest or weed control at 16 g/ha ([3]; Sorghum halepense, pre-emergence, 16 g ai/ha, preemergence, scale 0 to 100 (0 no effect, 100 complete control), read-out: Johnsongrass plant response rating): 20%
pest or weed control at 62 g/ha ([3]; Sorghum halepense, pre-emergence, 62 g ai/ha, preemergence, scale 0 (no effect) to 100 (complete control), read-out: Johnsongrass plant response rating): 45%
pest or weed control at 125 g/ha ([3]; Sorghum halepense, pre-emergence, 125 g ai/ha, preemergence, scale 0 (no effect) to 100 (complete control), read-out: Johnsongrass plant response rating): 85%
pest or weed control at 31 g/ha ([3]; Sorghum halepense, pre-emergence, Preemergence, 31 g ai/ha, scale 0 to 100, 0 no effect, 100 complete control, read-out: Plant response rating, Johnsongrass): 25%
pest or weed control at 16 g/ha ([4]; Amaranthus tuberculatus, pre-emergence, 16 g ai/ha, preemergence, scale 0 to 100 (0 no effect, 100 complete control), read-out: Waterhemp plant response rating): 85%
pest or weed control at 62 g/ha ([4]; Amaranthus tuberculatus, pre-emergence, 62 g ai/ha, preemergence, scale 0 (no effect) to 100 (complete control), read-out: Waterhemp plant response rating): 100%
pest or weed control at 125 g/ha ([4]; Amaranthus tuberculatus, pre-emergence, 125 g ai/ha, preemergence, scale 0 (no effect) to 100 (complete control), read-out: Waterhemp plant response rating): 100%
pest or weed control at 31 g/ha ([4]; Amaranthus tuberculatus, pre-emergence, Preemergence, 31 g ai/ha, scale 0 to 100, 0 no effect, 100 complete control, read-out: Plant response rating, Waterhemp): 100%
plant injury at 16 g/ha ([5]; Triticum aestivum, pre-emergence, 16 g ai/ha, preemergence, scale 0 to 100 (0 no effect, 100 complete control), read-out: Wheat plant response rating): 0%
plant injury at 62 g/ha ([5]; Triticum aestivum, pre-emergence, 62 g ai/ha, preemergence, scale 0 (no effect) to 100 (complete control), read-out: Wheat plant response rating): 0%
plant injury at 125 g/ha ([5]; Triticum aestivum, pre-emergence, 125 g ai/ha, preemergence, scale 0 (no effect) to 100 (complete control), read-out: Wheat plant response rating): 15%
plant injury at 31 g/ha ([5]; Triticum aestivum, pre-emergence, Preemergence, 31 g ai/ha, scale 0 to 100, 0 no effect, 100 complete control, read-out: Plant response rating, Wheat): 0%
plant injury at 16 g/ha ([6]; Zea mays, post-emergence, 16 g ai/ha, postemergence, 0 is no effect, 100 is complete control, read-out: Plant response rating (0 to 100), Corn): 5%
Corn plant response rating (crop injury, 0 = no effect, 100 = complete kill) at 125 g/ha ([6]; Zea mays, post-emergence, 125 g ai/ha, postemergence, visual rating, scale 0 to 100 (0 no effect, 100 complete control)): 5%
Corn plant response rating (crop injury, 0 = no effect, 100 = complete kill) at 62 g/ha ([6]; Zea mays, post-emergence, Postemergence, 62 g ai/ha, scale 0 to 100 (0 no effect, 100 complete control)): 10%
Pigweed plant response rating [7, 14]: 100
pest or weed control at 125 g/ha ([7]; Amaranthus retroflexus, pre-emergence, 125 g ai/ha, 0 to 100 scale where 0 is no effect and 100 is complete control, read-out: Plant response rating, Pigweed): 100%
Blackgrass plant response rating ([8]; 125 g ai/ha): 30
Plant response rating, Blackgrass ([8]; 500 g ai/ha): 90
Plant response rating, Wheat ([9]; 500 g ai/ha): 70
plant injury at 125 g/ha ([9]; Triticum aestivum, post-emergence, 240 h, 125 g ai/ha, read-out: Wheat plant response rating): 0%
pest or weed control at 250 g/ha ([10]; Heteranthera limosa, read-out: Plant response rating, Ducksalad): 30%
Foxtail, Giant plant response rating ([11]; 125 g ai/ha): 70
Plant response rating, Foxtail, Giant ([11]; 500 g ai/ha): 100
Kochia plant response rating ([12]; 125 g ai/ha): 90
Plant response rating, Kochia ([12]; 500 g ai/ha): 100
pest or weed control at 16 g/ha ([13]; Galium, pre-emergence, 16 g ai/ha, preemergence, scale 0 to 100 (0 no effect, 100 complete control), read-out: Galium plant response rating): 0%
pest or weed control at 62 g/ha ([13]; Galium, pre-emergence, 62 g ai/ha, preemergence, scale 0 (no effect) to 100 (complete control), read-out: Galium plant response rating): 90%
pest or weed control at 125 g/ha ([13]; Galium, pre-emergence, 125 g ai/ha, preemergence, scale 0 (no effect) to 100 (complete control), read-out: Galium plant response rating): 98%
pest or weed control at 31 g/ha ([13]; Galium, pre-emergence, Preemergence, 31 g ai/ha, scale 0 to 100, 0 no effect, 100 complete control, read-out: Plant response rating, Galium): 0%
